The experiment concerns the target T1, mAChR M1 (UniProt P11229).
T1 sequence (P11229 1-460): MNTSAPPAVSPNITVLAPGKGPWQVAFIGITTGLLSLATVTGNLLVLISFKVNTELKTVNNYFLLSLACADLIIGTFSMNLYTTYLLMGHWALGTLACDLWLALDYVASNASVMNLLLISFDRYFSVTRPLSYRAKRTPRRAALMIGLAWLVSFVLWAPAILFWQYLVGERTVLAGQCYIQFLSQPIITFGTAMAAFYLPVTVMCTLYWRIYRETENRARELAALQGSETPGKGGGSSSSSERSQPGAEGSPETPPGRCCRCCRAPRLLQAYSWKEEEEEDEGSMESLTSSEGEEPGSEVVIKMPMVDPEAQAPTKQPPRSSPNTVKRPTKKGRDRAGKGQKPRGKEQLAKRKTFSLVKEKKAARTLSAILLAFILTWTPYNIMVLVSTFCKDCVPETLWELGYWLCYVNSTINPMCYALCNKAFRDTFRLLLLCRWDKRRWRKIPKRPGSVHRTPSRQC
As to the kind of experiment: mAChR M1 cell-based functional assay (calcium mobilization, potentiation of EC20 acetylcholine response). The settings on record: for Emax: % ACh maximum at 30 μM; for EC50: CHO-K1 cells expressing mAChR M1, increase in EC20 acetylcholine response, >10 μM estimated where no plateau in the curve. The procedure: Chinese hamster ovary (CHO-K1) cells stably expressing rat (r)M1 were purchased from the American Type Culture Collection and cultured according to their indicated protocol. […] To make stable rM2, hM2, rM3, hM4, and rM4 cell lines for use in calcium mobilization assays, these cells also were stably transfected with a chimeric G-protein (Gqi5) (provided by B. R. Conklin, University of California, San Francisco) using Lipofectamine 2000. rM1, hM1, rM3, hM3, rM5, and hM5 cells were grown in Ham's F-12 medium containing 10% heat-inactivated fetal bovine serum (FBS), 20 mM HEPES, and 50 μg/mL G418 sulfate. rM2-Gqi5, hM2-Gqi5, and hM4-Gqi5 cells were grown in the same medium also containing 500 μg/mL Hygromycin B. Stable rM4-Gqi5 cells were grown in DMEM containing 10% heat-inactivated FBS, 20 mM HEPES, 400 μg/mL G418 sulfate, and 500 μg/mL Hygromycin B.
For high throughput measurement of agonist-evoked increases in intracellular calcium, CHO-K1 cells stably expressing muscarinic receptors were plated in growth medium lacking G418 and hygromycin at 15,000 cells/20 μL/well in Greiner 384-well black-walled, tissue culture (TC)-treated, clear-bottom plates (VWR). Cells were incubated overnight at 37° C. and 5% CO2. […] Compound master plates were formatted in an 11 point CRC format (1:3 dilutions) in 100% DMSO with a starting concentration of 10 mM using the BRAVO liquid handler (Agilent). Test compound CRCs were then transferred to daughter plates ([…]) using the Echo acoustic plate reformatter (Labcyte, Sunnyvale, Calif.) and then diluted into assay buffer (40 μL) to a 2× stock using a Thermo Fisher Combi (Thermo Fisher Scientific, Waltham, Mass.).
Calcium flux was measured using the Functional Drug Screening System (FDSS) 6000 (Hamamatsu Corporation, Tokyo, Japan) as an increase in the fluorescent static ratio. Compounds were applied to cells (20 μL, 2×) using the automated system of the FDSS 6000 at 4 s into the 300 s protocol and the data were collected at 1 Hz. […] Agonist activity was analyzed as a concentration-dependent increase in calcium mobilization upon compound addition. Positive allosteric modulator activity was analyzed as a concentration-dependent increase in the EC20 acetylcholine response. Antagonist activity was analyzed as a concentration-dependent decrease in the EC80 acetylcholine response. Concentration-response curves were generated using a four-parameter logistical equation in XLfit curve fitting software (IDBS, Bridgewater, N.J.) for Excel (Microsoft, Redmond, Wash.) or Prism (GraphPad Software, Inc., San Diego, Calif.).
The calcium mobilization assay was also used to determine “efficacy”. In the context of the assays carried out for the data in Table II, “efficacy” (% ACh at 30 μM) is defined as the maximal response in the calcium flux as determined by the sigmoidal curve fit of the concentration response curve, or in the absence of an acceptable curve fit, the response recorded at 30 μM test compound, stated as a percentage of the response elicited by a concentration of Ach that induces approximately 80% of a maximal (i.e. saturating) ACh response.
Substituted benzylspiroindolin-2-one analogs were synthesized as described above. Activity (EC50 and Emax) was determined in the mAChR M1 cell-based functional assay as described above and the data are shown in Table III. The compound number corresponds to the compound numbers used in Tables I and II.

Where only a bound is given, the exact number is not on record here.

Consider 32 compounds from patent publication US9073935B2, “Substituted benzylspiroindolin-2-one analogs as positive allosteric modulators of the muscarinic acetylcholine receptor M1” (VANDERBILT UNIVERSITY, priority 2011, dated 2015).

The Emax is the maximal effect, on the per cent scale that the assay sets. Broadly, the EC50 is the concentration that produces a half-maximal response. Consider `Cn1cc(-c2ccc(CN3C(=O)C4(CCN(C5CCNC5)CC4)c4ccccc43)c(F)c2)cn1` (stereo not shown) [Compound B33], for which the Emax stood at 52% and the 50% effective concentration (EC50) is 3.9 µM.
On to `Cn1cc(-c2ccc(CN3C(=O)C4(CCN(C5CCOCC5)CC4)c4ccccc43)c(F)c2)cn1` [Compound B69], for which the Emax is given as 41% and the 50% effective concentration (EC50) is greater than 10 µM.
As to `Cn1cc2c(-c3cc(F)c(CN4C(=O)C5(CCNC5)c5ccccc54)c(F)c3)cccc2n1` (stereo not shown) [Compound B74], the Emax is listed as 69% and the concentration for a half-maximal effect (EC50) is 7.2 µM.
On the same counts, the results for `Cn1cc(-c2ccc(CN3C(=O)C4(CCN(C5CCCCC5)C4)c4ccccc43)c(F)c2)cn1` (stereo not shown) [Compound B5] are 66% and 1.8 µM.
Regarding `CN1CCC(N2CCC3(CC2)C(=O)N(Cc2ccc(-c4cnn(C)c4)cc2F)c2ccccc23)C1` (stereo not shown) [Compound B39], the Emax was found to be 55% and the EC50 was 4.7 µM.
On the same counts, the results for `Cn1cc(-c2ccc(CN3C(=O)C4(CCN(C5COC5)CC4)c4ccccc43)c(F)c2)cn1` [Compound B55] are 45% and 7 µM.
`Cn1cc(-c2ccc(CN3C(=O)C4(CCN(C5CCCCC5F)C4)c4ccccc43)c(F)c2)cn1` (stereo not shown) [Compound B20]: the Emax was found to be 67% and the concentration giving a half-maximal response (EC50) was 3 µM.
The like results for `Cn1cc(-c2ccc(CN3C(=O)C4(CCN(C5CCCCC5F)CC4)c4ccccc43)c(F)c2)cn1` (stereo not shown) [Compound B9] were, in that order, 32% and 2.3 µM.
The like results for `CN1CCCC12C(=O)N(Cc1ccc(-c3cnn(C)c3)cc1)c1ccccc12` (stereo not shown) [Compound B64, 1′-methyl-1-(4-(1-methyl-1H-pyrazol-4-yl)benzyl)spiro[indoline-3,2′-pyrrolidin]-2-one] were, in that order, 48% and greater than 10 µM.
For the compound `Cn1cc2c(-c3cc(F)c(CN4C(=O)C5(CCN(C(=O)OC(C)(C)C)C5)c5ccccc54)c(F)c3)cccc2n1` (stereo not shown) [Compound B76], the maximal response (Emax) is recorded as less than 30% and the EC50 is greater than 10 µM.
The like results for `Cn1cc(-c2ccc(CN3C(=O)C4(CCN(C5CCCOC5)C4)c4ccccc43)c(F)c2)cn1` (single isomer, unassigned) [Compound B68] were, in that order, 60% and greater than 10 µM.
Turning to `Cn1cc(-c2ccc(CN3C(=O)C4(CCN(C5CCCOC5)C4)c4ccccc43)c(F)c2)cn1` (single isomer, unassigned) [Compound B34], the Emax was found to be 28% and the EC50 was 3.9 µM.
As for `Cn1cc(-c2ccc(CN3C(=O)C4(CCN(CC5CCCCC5)C4)c4ccccc43)c(F)c2)cn1` (single isomer, unassigned) [Compound B72], the Emax was 36% and the EC50 was greater than 10 µM.
Consider `Cn1cc(-c2cc(F)c(CN3C(=O)C4(CCN(C5CCCC5)C4)c4ccccc43)c(F)c2)cn1` (stereo not shown) [Compound B4], for which the Emax is recorded as 72% and the half-maximal effective concentration (EC50) was 1.7 µM.
Turning to `Cn1cc(-c2ccc(CN3C(=O)C4(CCN(C5CCCCCC5)C4)c4ccccc43)c(F)c2)cn1` (stereo not shown) [Compound B21], the maximal response (Emax) turned out to be 51% and the EC50 is 3 µM.
The like results for `CC(=O)N1CCC2(C1)C(=O)N(Cc1ccc(-c3cnn(C)c3)cc1F)c1ccccc12` (stereo not shown) [Compound B63, 1′-acetyl-1-(2-fluoro-4-(1-methyl-1H-pyrazol-4-yl)benzyl)spiro[indoline-3,3′-pyrrolidin]-2-one] were, in that order, 54% and greater than 10 µM.
The like results for `Cn1cc(-c2ccc(CN3C(=O)C4(CCN(CC5CCCCC5)C4)c4ccccc43)c(F)c2)cn1` (single isomer, unassigned) [Compound B73] were, in that order, less than 20% and greater than 10 µM.
In the case of `Cn1cc(-c2ccc(CN3C(=O)C4(CCN(C(=O)C5CCCCC5)C4)c4ccccc43)c(F)c2)cn1` (stereo not shown) [Compound B62], the maximal effect (Emax) is recorded as 54% and the half-maximal effective concentration (EC50) is greater than 10 µM.
Turning to `Cn1cc(-c2ccc(CN3C(=O)C4(CCN(C5CCCOC5)C4)c4ccccc43)c(F)c2)cn1` (stereo not shown) [Compound B19], the Emax was 62% and the concentration giving a half-maximal response (EC50) is 2.9 µM.
Consider `Cn1cc(-c2ccc(CN3C(=O)C4(CCN(C5CCSCC5)C4)c4ccccc43)c(F)c2)cn1` (stereo not shown) [Compound B15], for which the Emax was determined as 58% and the concentration for a half-maximal effect (EC50) is 2.7 µM.
For the compound `Cn1cc(-c2ccc(CN3C(=O)C4(CCN(C(=O)c5ccccc5)C4)c4ccccc43)c(F)c2)cn1` (single isomer, unassigned) [Compound B47], the maximum response (Emax) is 38% and the EC50 was 5.8 µM.
The like results for `Cn1cc(-c2ccc(CN3C(=O)C4(CCN(S(C)(=O)=O)C4)c4ccccc43)c(F)c2)cn1` (stereo not shown) [Compound B65, 1-(2-fluoro-4-(1-methyl-1H-pyrazol-4-yl)benzyl)-1′-(methylsulfonyl)spiro[indoline-3,3′-pyrrolidin]-2-one] were, in that order, 35% and greater than 10 µM.
On the same counts, the results for `Cn1cc(-c2ccc(CN3C(=O)C4(CCN(C5CCCC5)C4)c4ccccc43)c(F)c2F)cn1` (stereo not shown) [Compound B12] are 52% and 2.4 µM.
For the compound `CN1CCC2(CC1)C(=O)N(Cc1c(F)cc(-c3cccc4nn(C)cc34)cc1F)c1ccccc12` [Compound B79], the Emax was less than 30% and the 50% effective concentration (EC50) was greater than 10 µM.
With `Cc1nn(C)cc1-c1ccc(CN2C(=O)C3(CCN(C4CCCC4)C3)c3ccccc32)c(F)c1` (stereo not shown) [Compound B30], the Emax was 51% and the EC50 was 3.7 µM.
As to `Cn1cc(-c2ccc(CN3C(=O)C4(CCN(C(=O)C5CCC5)C4)c4ccccc43)c(F)c2)cn1` (stereo not shown) [Compound B51], the maximum response (Emax) came out at 50% and the EC50 is 6.2 µM.
As to `Cn1cc(-c2ccc(CN3C(=O)C4(CCN(C5CCCC5)C4)c4ccccc43)c(F)c2)cn1` (stereo not shown) [Compound B3, 1′-cyclopentyl-1-(2-fluoro-4-(1-methyl-1H-pyrazol-4-yl)benzyl)spiro[indoline-3,3′-pyrrolidin]-2-one], the maximal response (Emax) turned out to be 61% and the EC50 is 1.6 µM.
On the same counts, the results for `CC1CCCCC1N1CCC2(C1)C(=O)N(Cc1ccc(-c3cnn(C)c3)cc1F)c1ccccc12` (stereo not shown) [Compound B60] are 39% and greater than 10 µM.
On the same counts, the results for `Cn1cc(-c2ccc(CN3C(=O)C4(CCN(C5CCCOC5)CC4)c4ccccc43)c(F)c2)cn1` (stereo not shown) [Compound B38] are 50% and 4.7 µM.
For the compound `CN1CCC(N2CCC3(CC2)C(=O)N(Cc2ccc(-c4cnn(C)c4)cc2F)c2ccccc23)CC1` [Compound B48], the maximum response (Emax) was determined as 51% and the EC50 is 5.9 µM.
Take `Cn1cc(-c2ccc(CN3C(=O)C4(CCN(C5CCC(F)(F)CC5)C4)c4ccccc43)c(F)c2)cn1` (stereo not shown) [Compound B59]: the Emax is 53% and the EC50 is greater than 10 µM.
As for `Cn1cc(-c2ccc(CN3C(=O)C4(OCCO4)c4ccccc43)c(F)c2)cn1` [Compound B22, 1′-(2-fluoro-4-(1-methyl-1H-pyrazol-4-yl)benzyl)spiro[[1,3]dioxolane-2,3′-indolin]-2′-one], the maximal response (Emax) worked out at 86% and the half-maximal effective concentration (EC50) was 3.2 µM.
